# Laboratory results taken from patent publication US20130183323A1, “TARGETED ANTIBIOTIC AND ANTIMICROBIAL TREATMENTS FOR PERSONALIZED ADMINISTRATION” (priority 2011, published 2013).
# Tests used:
# Test in all cases: minimum inhibition concentration (MIC) for tetracycline
# Type in all cases: cell-based
# Details in all cases: tetracycline resistant isolate from aquaculture environment
# Enterococcus sp. 18fT3 = system: Enterococcus sp. 18fT3
# Method: (§1) Study 1. The variability of antibiotic resistant (ART) bacteria in responding to drug treatment was evaluated using tetracycline resistant isolates in brain heart infusion (BHI) broth. […] All strains were isolated from aquaculture environment. The bacteria in different titer were grown in BHI with different concentration of tetracycline conjugated to antibody against Enterococcus.
# Enterococcus sp. 17fT4 = system: Enterococcus sp. 17fT4
# Method: as §1
# [1] = system: Plesiomonas shigelloides 17iT21
# Method: as §1
smiles,measurement,setting,value
CN(C)[C@@H]1C(O)=C(C(N)=O)C(=O)[C@@]2(O)C(O)=C3C(=O)c4c(O)cccc4[C@@](C)(O)[C@H]3C[C@@H]12 [tetracycline],MIC,Enterococcus sp. 18fT3,512 µg/mL
same,MIC,Enterococcus sp. 17fT4,128 µg/mL
same,MIC,[1],64 µg/mL
